Laboratory results published in paper PMC5458519, “Splicing modulators act at the branch point adenosine binding pocket defined by the PHF5A–SF3b complex” (Nature Communications, 2017).

How the values were obtained:
[1] = system: HCT116 resistant clones (SF3B1-R1074H, SF3B1-V1078A/I, PHF5A-Y36C); assay: 72 h growth inhibition profiling (CellTiter-Glo) of E7107- and herboxidiene-resistant HCT116 clones; type: cell-based; conditions: HCT116 clones with SF3B1-R1074H, SF3B1-V1078 or PHF5A-Y36C; 72 h CellTiter-Glo
Experimental: In total, 2.5 million HCT116 cells were seeded in each 10 cm dish and treated with indicated dosages of splicing modulators for 2 weeks. Compounds were refreshed every 4 days. When needed, confluent dishes were split 1:3 and cells were allowed to recover overnight without splicing modulator treatment after re-seeding. At the end of the compound selection period, surviving individual clones were picked and transferred to 12-well plates. Individual resistant clones were further expanded without splicing modulator treatment and one million cells from each clone were pelleted for genomic DNA extraction using the DNeasy Blood & Tissue Kit from Qiagen. WXS libraries were generated by Novogene Corporation using Agilent SureSelect Human All Exon V6 kit and sequenced on Illumina HiSeq platform. 12G raw data were gathered for each sample. WXS reads were then aligned to hg19 by BWA-MEM[40] and somatic mutations were identified with MuTect2 (ref. [41]) through Sentieon pipeline[42] by pairing resistant clone with parental cell lines. As we selected the resistant clones for WXS, the allele frequencies for the mutations which are responsible for the resistance should be high. We focused on non-silent mutations (among the H3 curated spliceosome genes) with allele frequency higher than 0.2.
(§1) For CellTiter-Glo analysis, 500 cells were seeded in each well of a 384-well plate the day before compound addition. An 11 pt serial dilution was used starting with a top final dosage of 10 μM for 10 additional doses. DMSO percentage was maintained throughout and a DMSO-only control was included. Seventy-two hours post compound addition, CellTiter-Glo reagent was added to the medium, incubated and assayed on EnVision Multilabel Reader (PerkinElmer). The luminescence value from each treatment sample was normalized to the average value of the respective DMSO control. The dosage response curve plots were generated using Graphpad Prism 6 and fit using nonlinear regression analysis and the log(inhibitor) versus response—Variable slope (four parameters). For heatmap summarization of IC50 shifts, IC50 value was extracted from dosage response curves and the fold changes of IC50 values in PHF5A variants expressing lines over that of the WT lines were calculated and plotted using TIBCO Spotfire software. For IC50s greater than the top dosage, the values were arbitrarily set at 10 μM. Unsupervised clustering analysis was performed in TIBCO Spotfire using the following default parameters: Clustering method: UPGMA; Distance measure: Euclidean; Ordering weight: Average value; Normalization: (None); Empty value replacement: Constant value: 0.

SF3B1 (R1074H) = system: SF3B1 (R1074H); set-up: method as in PMID 21981285; conditions: single amino acid substitution R1074H in SF3B1; cited from earlier work
HCT116 cells = assay: 72 h growth inhibition profiling (CellTiter-Glo cellular viability assay), parental HCT116; type: cell-based; conditions: in HCT116
Experimental: as §1

[2] = system: global splicing (splice junction usage); assay: RNA-seq differential splicing analysis in PHF5A WT or Y36C overexpressing cells; type: cell-based; conditions: 100 nM
Experimental: Either PHF5A WT or Y36C mutant-overexpressing cells were treated with either DMSO or E7107 (100 nM and 10 μM) for 6 h in hexaplicate before lysed in TRIzol reagent (Thermo Fisher). After phase separation, the top aqueous phase was further processed using MagMAX-96 Total RNA Isolation Kit (Thermo Fisher, AM1830) for RNA extraction. RNA quality was assessed using Agilent tapestation with RNA screen tape. RNA-seq libraries were prepared by Beijing Genomic Institute (BGI) and sequenced on Illumina Hiseq 4,000 for 6G clean reads per sample. RNA-seq reads were aligned to hg19 by STAR[50] and raw junction counts generated by STAR were used for calculating PSI to quantify splice junction usage relative to all other splice junctions that share the same splice site as described before. Differential PSI were assessed between a pair of sample groups using moderated t-test defined in limma package[52] in Bioconductor. […]
The number of reads which cover the splice junction which excludes a given cassette exon (ES reads) are compared with both the number of spliced reads which share its 3′ splice site yet have an alternative 5′ splice site bordering the cassette exon (exon inclusion reads) and the number of reads which cross the exon–intron boundary at that same 3′ splice site (IR reads). […]

[3] = system: splicing of SLC25A19, EIF4A1 and MCL1; assay: Taqman gene expression assay (SLC25A19 mRNA, EIF4A1 pre-mRNA, MCL1 isoforms) in PHF5A WT or Y36C HCT116 cells; type: cell-based; conditions: for induction of MCL1 ES and IR events: PHF5A WT cells, dose response, 4 h
Experimental: Eight thousand cells of indicated genotypes were seeded in each well of 96-well plate and allowed to settle overnight. On the second day, 11 pt serial dilution (1:4 fold dilution across) of indicated compound with a top dosage of 10 μM final was added to the culturing medium. Four hours post compound addition, culturing medium was decanted and washed once with PBS. PBS was then decanted completely from the plate and Lysis buffer (plus DNase I) from TaqMan Gene Expression Cells-to-CT Kit (Thermo Fisher, cat # AM1729) was added according to the manual. After 5 min incubation at RT on the shaker, stop solution was added to each well and incubated for 2 min. Reverse transcription was set up immediately using the Cells-to-CT Kit and cDNAs were used for quantitative real-time PCR analysis using Viia7 (Thermo Fisher). Each reaction is multiplexed with an FAM-labelled probe targeting specific target gene splicing isoforms and a VIC-labelled probe targeted 18S rRNA as loading control. Therefore, the FAM Ct value in each well was first normalized to the VIC Ct value in the same well before further normalization to the FAM/VIC ratio of DMSO-treated control samples to calculate fold change over DMSO. Graphs were generated using Graphpad Prism 6, n=2. Taqman gene expression probes used in these assays are listed in Supplementary Table 1.

PANC0504 cells = assay: Growth inhibition of Panc0504 cells expressing PHF5A WT or Y36C; type: cell-based
Experimental: (§2) Parental HCT116 cells were obtained from ATCC and cultured in RPMI 1,640 medium (Thermo Fisher, GIBCO#11875) supplemented with 10% fetal bovine serum (FBS). Parental Panc0504 cells were obtained from ATCC and cultured in GIBCO RPMI 1,640 medium (Thermo Fisher, GIBCO#11875) supplemented with glucose (to 4.5 g l^−1 final), HEPES (10 mM final), sodium pyruvate (1 mM final), human insulin (10 μg ml^−1 final) and 15% FBS. Cell line authentication was achieved by genetic profiling using polymorphic short tandem repeat (STR) loci (ATCC). All cell lines were free of mycoplasma contamination. […]
(§3) For CellTiter-Glo analysis, 500 cells were seeded in each well of a 384-well plate the day before compound addition. […] Seventy-two hours post compound addition, CellTiter-Glo reagent was added to the medium, incubated and assayed on EnVision Multilabel Reader (PerkinElmer). The luminescence value from each treatment sample was normalized to the average value of the respective DMSO control. […] For heatmap summarization of IC50 shifts, IC50 value was extracted from dosage response curves and the fold changes of IC50 values in PHF5A variants expressing lines over that of the WT lines were calculated and plotted using TIBCO Spotfire software. […]

[4] = system: PHF5A variant expressing HCT116 cells; assay: 72 h growth inhibition profiling (CellTiter-Glo) of PHF5A WT- or Y36/V37 variant-expressing HCT116 cells; type: cell-based; conditions: HCT116, 72 h
Experimental: as §2, §3

Compound: CC[C@H](O)[C@@H](C)[C@H]1O[C@@H]1C[C@@](C)(O)/C=C/C=C(\C)[C@H]1OC(=O)C[C@H](O)CC[C@@](C)(O)[C@@H](OC(=O)N2CCN(C3CCCCCC3)CC2)/C=C/[C@@H]1C [E7107]
- resistance of resistant clones in growth inhibition profiling [1]: SF3B1-R1074H mutation conferred the most robust resistance
- effect of SF3B1 R1074H on splicing-modulating and antiproliferative effects (SF3B1 (R1074H)): almost completely abolished
- GI50 (HCT116 cells; Homo sapiens, HCT-116): 1.5 nM
- dominant MCL1 splicing event (Sashimi plot of RNA-seq) ([2]; PHF5A WT cells): IR was the dominant event
- dominant MCL1 splicing event (Sashimi plot of RNA-seq) ([2]; PHF5A Y36C cells): mainly ES events were observed
- induction of MCL1 ES and IR events [3]: ‘earlier' induction of MCL1 ES events than IR events at lower doses
- MCL1-S production (ES events) in PHF5A-Y36C cells compared to WT ([3]; increasing dosage): enhanced to a higher level
- resistance phenotype on PHF5A Y36C over-expression (PANC0504 cells): partial resistant phenotype

Compound: CC(C)C[C@H](NC(=O)[C@H](Cc1ccccc1)NC(=O)c1cnccn1)B(O)O [bortezomib, Bortezomib]
- resistance of resistant clones in growth inhibition profiling [1]: did not affect the cell lines' sensitivity
- resistance in PHF5A Y36 variant expressing cells [4]: resistance only occurred to the treatment with splicing modulators but not bortezomib

Compound: COC(C(C)O)C(C)C1OC1(C)CC(C)C=CC=C(C)C1OC(CC(=O)O)CCC1C (stereo not drawn) [herboxidiene]
- resistance of resistant clones in growth inhibition profiling [1]: PHF5A-Y36C mutation rendered more resistance
- GI50 (HCT116 cells; Homo sapiens, HCT-116): 7.6 nM

Compound: CO[C@]1(C)C[C@@]2(CO2)[C@H](O)[C@@H](/C=C/C(C)=C/C[C@@H]2O[C@H](C)[C@H](NC(=O)/C=C\[C@H](C)OC(C)=O)C[C@@H]2C)O1 [spliceostatin A]
- resistance of resistant clones in growth inhibition profiling [1]: SF3B1-R1074H mutation also conferred better resistance
- GI50 (HCT116 cells): 0.76 nM

Compound: CNC(=O)OC(C)C=CC(=O)NC1CCC(CC=C(C)C=CC2CC3(CO3)CC(C)(C)O2)CC1 (stereo not drawn) [sudemycin D6]
- resistance of resistant clones in growth inhibition profiling [1]: SF3B1-R1074H mutation also conferred better resistance
- GI50 (HCT116 cells): 149 nM
- induction of MCL1 ES and IR events [3]: IR events were not observed

Compound: pladienolide B
- effect of SF3B1 R1074H on splicing-modulating and antiproliferative effects (SF3B1 (R1074H)): almost completely abolished
